Data reported in ChEMBL document CHEMBL4152195, “Lipid reducing activity and toxicity profiles of a library of polyphenol derivatives” (Eur J Med Chem, 2018).
Activity calls are given as the source filed them. The rule behind the calls is not given here.

How the values were obtained:
Danio rerio [1] = organism: Danio rerio; experiment: Lipid lowering activity in zebrafish embryos at 5 uM by Nile red fat metabolism assay; assay type: functional, organism-based
Danio rerio [2] = organism: Danio rerio; experiment: Toxicity in zebra fish larvae at 5 uM after 48 hrs; assay type: organism-based; conditions: zebrafish, in vivo
3T3-L1 [3] = experiment: Cytotoxicity against mouse 3T3L1 cells at 50 uM after 24 hrs by sulforhodamine B assay; assay type: cell-based; conditions: 3t3-l1, 24 h
3T3-L1 [4] = experiment: Cytotoxicity against mouse 3T3L1 cells at 50 uM after 48 hrs by sulforhodamine B assay; assay type: cell-based; conditions: 3t3-l1, 48 h
Danio rerio [5] = organism: Danio rerio; experiment: Lipid lowering activity in zebrafish embryos by Nile red fat metabolism assay; assay type: functional, organism-based

Row | SMILES | Activity (Danio rerio [1]) | Activity (Danio rerio [2]) [%] | Activity (3T3-L1 [3]) [%] | Activity (3T3-L1 [4]) [%] | EC50 (Danio rerio [5]) [µM]
1 | O=c1c2ccccc2oc2c(O)c(O)ccc12 [3,4-DIHYDROXYXANTHONE] | Active | 0 to 25 | 26 to 50 | 51 to 75 | –
2 | O=c1c2ccccc2sc2c(O)ccc(Cl)c12 | Active | 0 to 25 | 0 to 25 | 51 to 75 | –
3 | CC(C)=CCOc1ccc2oc3ccccc3c(=O)c2c1OCC=C(C)C | – | 0 to 25 | 26 to 50 | 51 to 75 | –
4 | CC(C)[C@@H](CO)NC(=O)COc1ccc2c(=O)c3ccccc3oc2c1 | – | 0 to 25 | 0 to 25 | 0 to 25 | –
5 | COc1cccc2c(=O)c3cc4c(c(O)c3oc12)OC(C)(C)CC4 | – | 0 to 25 | 51 to 75 | 51 to 75 | –
6 | COc1ccc2c(=O)c3ccccc3oc2c1O | Active | 0 to 25 | 0 to 25 | 0 to 25 | 0.48
7 | O=c1c2ccccc2oc2cc(O)c(O)cc12 | Active | 0 to 25 | 0 to 25 | 0 to 25 | 0.98
8 | COc1cc(C=O)c2c(=O)c3ccccc3oc2c1OC | Active | 0 to 25 | 0 to 25 | 51 to 75 | –
9 | COc1cc2c(c3oc4ccccc4c(=O)c13)OC(C)(C)CC2 | Active | 0 to 25 | 0 to 25 | 0 to 25 | 0.73
10 | COc1c(O)ccc2c(=O)c3ccccc3oc12 | – | 0 to 25 | 0 to 25 | 0 to 25 | –
11 | O=c1c2ccc(O[C@H]3O[C@H](CO)[C@@H](O)[C@@H](O)[C@@H]3O)cc2oc2cc(O[C@@H]3O[C@@H](CO)[C@H](O)C(O)[C@H]3O)ccc12 (some centres undefined) | – | 0 to 25 | 0 to 25 | 26 to 50 | –
12 | COc1c(O)cc2oc3cc(O)c(CC=C(C)C)c(O)c3c(=O)c2c1CC=C(C)C [MANGOSTIN] | – | 76 to 100 | 76 to 100 | 76 to 100 | –
13 | C=CCOc1ccc(/C=C/C(=O)/C=C/c2ccc(OCC=C)c(OC)c2)cc1OC | Active | 0 to 25 | 0 to 25 | 0 to 25 | –
14 | O=c1c2ccccc2oc2cccc(OCCCCCBr)c12 | Active | 0 to 25 | 0 to 25 | 26 to 50 | –
15 | O=c1c2ccccc2oc2cccc(OCCCCCCOc3cccc4oc5ccccc5c(=O)c34)c12 | – | 0 to 25 | 0 to 25 | 51 to 75 | –
16 | COc1cc(/C=C/C(=O)/C=C/c2ccc(O)c(OC)c2)ccc1O | Active | 0 to 25 | 0 to 25 | 0 to 25 | –
17 | CCCOc1ccc(NNC(=O)c2ccncc2)c2c(=O)c3ccccc3sc12 | – | 51 to 75 | 0 to 25 | 51 to 75 | –
18 | O=C(COc1ccc2c(=O)c3ccccc3oc2c1)N[C@H](c1ccccc1)[C@@H](O)c1ccccc1 | Active | 0 to 25 | 76 to 100 | 0 to 25 | –
19 | COC(=O)c1ccccc1Oc1ccc(OC)c(OC)c1 | – | 0 to 25 | 0 to 25 | 51 to 75 | –
20 | O=c1c2ccccc2oc2c(O)cccc12 | – | 0 to 25 | 0 to 25 | 0 to 25 | –
21 | COc1cc(C(Br)Br)c2c(=O)c3ccccc3oc2c1OC | Active | 0 to 25 | 26 to 50 | 51 to 75 | –

Row | SMILES | Activity (Danio rerio [1]) | Activity (Danio rerio [2]) [%] | Activity (3T3-L1 [3]) [%] | Activity (3T3-L1 [4]) [%] | EC50 (Danio rerio [5]) [µM]
22 | COc1c2c(cc3c(=O)c4cc(Cl)ccc4oc13)OC(C)(C)CC2 | Active | 0 to 25 | 0 to 25 | 0 to 25 | 0.86
23 | COc1ccccc1C(=O)c1ccc(OC)c(OC)c1O | – | 0 to 25 | 0 to 25 | 51 to 75 | –
24 | C=Cc1cc2c(=O)c3ccccc3oc2c(OC)c1O | Active | 0 to 25 | 0 to 25 | 51 to 75 | –
25 | CCCOc1ccc(OC)c2c(=O)c3ccccc3sc12 | Active | 0 to 25 | 0 to 25 | 51 to 75 | –
26 | CC1(C)C=Cc2c(cc3c(=O)c4ccccc4oc3c2O)O1 | Active | 0 to 25 | 0 to 25 | 0 to 25 | 0.56
27 | C#CCOc1ccc2c(=O)c3ccc(OCC#C)cc3oc2c1 | – | 0 to 25 | 0 to 25 | 0 to 25 | –
28 | CCCOc1ccc(NCCN(CC)CC)c2c(=O)c3ccccc3sc12.Cl | – | 76 to 100 | 76 to 100 | 76 to 100 | –
29 | COc1cc2oc3c(OC)c4c(cc3c(=O)c2cc1OC)OC(C)(C)CC4 | – | 0 to 25 | 0 to 25 | 0 to 25 | –
30 | C#CCOc1ccc(/C=C/C(=O)/C=C/c2ccc(OCC#C)c(OC)c2)cc1OC | Active | 0 to 25 | 26 to 50 | 0 to 25 | –
31 | COc1ccc2oc3ccccc3c(=O)c2c1 | Active | 0 to 25 | 51 to 75 | 0 to 25 | –
32 | COc1ccc2c(=O)c3ccccc3oc2c1OC | Active | 0 to 25 | 0 to 25 | 0 to 25 | 0.36
33 | CC(=O)Oc1ccc(C(=O)c2ccc(OC(C)=O)c(OC(C)=O)c2)cc1OC(C)=O | – | 0 to 25 | 26 to 50 | 51 to 75 | –
34 | CC(C)[C@H](CO)NC(=O)COc1ccc2c(=O)c3ccccc3oc2c1 | – | 0 to 25 | 0 to 25 | 0 to 25 | –
35 | O=c1c2ccccc2oc2cc(O)ccc12 | – | 0 to 25 | 0 to 25 | 0 to 25 | –
36 | COc1cc(C=O)c2c(=O)c3ccccc3oc2c1O | Active | 0 to 25 | 0 to 25 | 51 to 75 | –
37 | COc1ccc2oc3ccccc3c(=O)c2c1OC | Active | 0 to 25 | 0 to 25 | 0 to 25 | 0.62
38 | O=c1c2ccccc2oc2ccc(O)cc12 | Active | 0 to 25 | 0 to 25 | 0 to 25 | 0.76
39 | COc1c2c(cc3c(=O)c4ccccc4oc13)OC(C)(C)C=C2 | Active | 0 to 25 | 26 to 50 | 51 to 75 | –
40 | O=C(COc1ccc2c(=O)c3ccccc3oc2c1)N[C@@H](c1ccccc1)[C@H](O)c1ccccc1 | – | 0 to 25 | 76 to 100 | 0 to 25 | –
41 | O=c1c2ccccc2oc2ccccc12 [XANTHONE] | – | 0 to 25 | 0 to 25 | 0 to 25 | –
42 | CC1(C)C=Cc2cc3c(=O)c4ccccc4oc3c(O)c2O1 | Active | 0 to 25 | 0 to 25 | 0 to 25 | 1.44

Row | SMILES | Activity (Danio rerio [1]) | Activity (Danio rerio [2]) [%] | Activity (3T3-L1 [3]) [%] | Activity (3T3-L1 [4]) [%] | EC50 (Danio rerio [5]) [µM]
43 | COc1cc([C@H]2Oc3ccc4c(=O)c5ccccc5oc4c3O[C@@H]2CO)ccc1O | – | 0 to 25 | 0 to 25 | 0 to 25 | –
44 | CCCOc1ccc(NCCN(CC)CC)c2c(=O)c3ccccc3sc12 | – | 76 to 100 | 0 to 100 | 51 to 100 | –
45 | COc1ccc(Oc2ccccc2C(=O)O)cc1OC | – | 0 to 25 | 0 to 25 | 0 to 25 | –
46 | Cc1c(O)cc2oc3ccccc3c(=O)c2c1O | – | 0 to 25 | 26 to 50 | 0 to 25 | –
47 | CCCOc1ccc(N2CCCCC2)c2c(=O)c3ccccc3sc12 | – | 76 to 100 | 26 to 50 | 51 to 75 | –
48 | COc1cc(CO)c2c(=O)c3ccccc3oc2c1OC | Active | 0 to 25 | 0 to 25 | 26 to 50 | –
49 | COc1ccc2c(=O)c3cc(C(=O)N[C@H](CO)c4ccccc4)ccc3oc2c1 | – | 0 to 25 | 51 to 75 | 26 to 50 | –
50 | COc1cc(/C=C/C(=O)/C=C/c2ccc(OCc3cn(CCO[C@H]4O[C@@H](COC(C)=O)[C@H](OC(C)=O)[C@@H](OC(C)=O)[C@@H]4NC(C)=O)nn3)c(OC)c2)ccc1OCc1cn(CCO[C@@H]2O[C@H](COC(C)=O)[C@@H](OC(C)=O)[C@H](OC(C)=O)[C@@H]2NC(C)=O)nn1 | – | 0 to 25 | 0 to 25 | 0 to 25 | –
51 | O=C(O)Cc1cccc2oc3ccccc3c(=O)c12 | – | 0 to 25 | 0 to 25 | 26 to 50 | –
52 | O=C(O)Cc1ccc2c(=O)c3ccccc3oc2c1 | Active | 0 to 25 | 0 to 25 | 0 to 25 | –
53 | O=Cc1c(O)ccc2c(=O)c3ccc(O)c(C=O)c3oc12 | – | 0 to 25 | 26 to 50 | 51 to 75 | –
54 | O=c1c2ccc(O)cc2oc2cc(O)ccc12 | – | 0 to 25 | 0 to 25 | 0 to 25 | –
55 | O=Cc1cc(O)c(O)c2oc3ccccc3c(=O)c12 | – | 0 to 25 | 0 to 25 | 51 to 75 | –
56 | CCN(CC)c1ccc2c(=O)c3cc4c(c(OC)c3oc2c1)CCC(C)(C)O4 | Active | 76 to 100 | 51 to 75 | 51 to 75 | –
57 | COc1cc2c(c3oc4ccccc4c(=O)c13)OC(C)(C)C=C2 | Active | 76 to 100 | 51 to 75 | 51 to 75 | –
58 | O=C(O)Cc1ccc2oc3ccccc3c(=O)c2c1 | – | 0 to 25 | 0 to 25 | 0 to 25 | –
59 | COc1cccc2c(=O)c3ccccc3oc12 | Active | 0 to 25 | 26 to 50 | 0 to 25 | –
60 | O=c1c2cc(O)c(O)cc2oc2cc(O)c([C@@H]3O[C@H](CO)[C@@H](O)[C@H](O)[C@H]3O)c(O)c12 [MANGIFERIN] | – | 0 to 25 | 0 to 25 | 0 to 25 | –
61 | COc1c2c(cc3c(=O)c4ccc(O)cc4oc13)CCC(C)(C)O2 | – | 0 to 25 | 0 to 25 | 0 to 25 | –
62 | COc1ccc2c(=O)c3cc(C(=O)N[C@@H](CO)c4ccccc4)ccc3oc2c1 | Active | 0 to 25 | 0 to 25 | 0 to 25 | –
